“And” between values parts separate entries of the source, which are not always exact repeats. Equal entries are not always repeated.
Experiments:
pregnancy in rats [1] = assay: Termination of pregnancy in rats, compounds administered subcutaneously (Table 2); format: in vivo, rat
Experimental: (§1) The following tables list the results for a compound of Formula IV as compared with a control of previously known 2α-cyano-17β-hydroxy-3-oxo-4,4,17α-trimethylandrost-5-end(Cyanoketone) for termination of pregnancy.
^1 Compounds given subcutaneously in corn oil vehicle once daily on
days 10 through 13 of pregnancy. Serum for progesterone determination was
drawn on day 11 of pregnancy, 24 hours after the initial injection of
(§2) compound. The animals were autopsied on day 14 of pregnancy.
^2 Serum progesterone values determined by RIA at Interlab Associates

pregnancy in rats [2] = assay: Pregnancy termination in rats, compounds administered intragastrically on day 10 of pregnancy (Table 3); format: in vivo, rat; conditions: autopsy day 14
Experimental: as §1
^1 Compounds were administered intragastrically once daily on days 10
of pregnancy in a vehicle consisting of PEG400, propylene glycol and 100
percent ethanol (50:40:10, v:v:v). Serum for progesterone determination
was drawn on day 11 of pregnancy, 24 hours after the initial injection of
as §2

[3] = 2 mg/kg/day subcutaneously in corn oil once daily days 10-13 of pregnancy, autopsy day 14
[4] = 4 mg/kg/day subcutaneously days 10-13 of pregnancy, serum day 11, 24 hours after initial injection
[5] = 4 mg/kg/day subcutaneously in corn oil once daily days 10-13 of pregnancy, autopsy day 14
[6] = 8 mg/kg/day subcutaneously days 10-13 of pregnancy, serum day 11, 24 hours after initial injection
[7] = 8 mg/kg/day subcutaneously in corn oil once daily days 10-13 of pregnancy, autopsy day 14
[8] = 16 mg/kg/day subcutaneously days 10-13 of pregnancy, serum day 11, 24 hours after initial injection
[9] = 16 mg/kg/day subcutaneously in corn oil once daily days 10-13 of pregnancy, autopsy day 14, 16 mg/kg/day
[10] = 32 mg/kg/day subcutaneously days 10-13 of pregnancy, serum day 11, 24 hours after initial injection
[11] = 32 mg/kg/day subcutaneously in corn oil once daily days 10-13 of pregnancy, autopsy day 14
[12] = 1 mg/kg intragastrically once on day 10 of pregnancy
[13] = 2 mg/kg intragastrically once on day 10 of pregnancy
[14] = 4 mg/kg intragastrically once on day 10 of pregnancy
[15] = 8 mg/kg intragastrically once on day 10 of pregnancy
[16] = 16 mg/kg intragastrically once on day 10 of pregnancy
[17] = 32 mg/kg intragastrically once on day 10 of pregnancy

## CC1(C)C(=O)[C@H](C#N)C[C@@]2(C)C1=CC[C@@H]1[C@@H]2CC[C@@]2(C)[C@H]1CC[C@]2(C)O [Cyanoketone, 2α-cyano-17β-hydroxy-3-oxo-4,4,17α-trimethylandrost-5-end]
Pregnancy in rats [1]; [3]
  Adrenal Wt. mg + SE: 91.6 + 4.6 mg
  Fetal Viability: Normal Fetuses/Implantation Sites: 94/103
  Fetal Viability: Normal Fetuses/Implantation Sites (Percent): 91%
  Number of Rats Pregnant/Number of Rats Treated: 8/8
  Number of Rats Pregnant/Number of Rats Treated (Percent): 100%
Pregnancy in rats [1]; [4]
  Serum Progesterone (Percent Control): 92 Percent Control
  Serum Progesterone ng/ml + S.E.: 40.0 + 3.5 ng/ml
Pregnancy in rats [1]; [5]
  Adrenal Wt. mg + SE: 93.1 + 4.0 mg
  Fetal Viability: Normal Fetuses/Implantation Sites: 27/87
  Fetal Viability: Normal Fetuses/Implantation Sites (Percent): 32%
  Number of Rats Pregnant/Number of Rats Treated: 3/6
  Number of Rats Pregnant/Number of Rats Treated (Percent): 50%
Pregnancy in rats [1]; [6]
  Serum Progesterone (Percent Control): 44 Percent Control
  Serum Progesterone ng/ml + S.E.: 22.1 + 6.0 ng/ml
Pregnancy in rats [1]; [7]
  Adrenal Wt. mg + SE: 78.8 + 3.9 mg
  Fetal Viability: Normal Fetuses/Implantation Sites: 36/119
  Fetal Viability: Normal Fetuses/Implantation Sites (Percent): 30%
  Number of Rats Pregnant/Number of Rats Treated: 5/10
  Number of Rats Pregnant/Number of Rats Treated (Percent): 50%
Pregnancy in rats [1]; [8]
  Serum Progesterone (Percent Control): 48 Percent Control
  Serum Progesterone ng/ml + S.E.: 24.3 + 7.6 ng/ml
Pregnancy in rats [1]; 16 mg/kg/day subcutaneously days 10-13 of pregnancy, serum day 11, determined by RIA at Interlab Associates (footnote 2)
  Serum Progesterone (Percent Control): 70 Percent Control
Pregnancy in rats [1]; 16 mg/kg/day subcutaneously days 10-13 of pregnancy, serum day 11, group whose values were determined by RIA at Interlab Associates (footnote 2)
  Serum Progesterone ng/ml + S.E.: 50.7 + 5.4 ng/ml
Pregnancy in rats [1]; [9]
  Adrenal Wt. mg + SE: 77.0 + 4.5 mg and 105.2 mg
  Fetal Viability: Normal Fetuses/Implantation Sites: 26/103 and 11/94
  Number of Rats Pregnant/Number of Rats Treated: 3/9 and 2/8
  Number of Rats Pregnant/Number of Rats Treated (Percent): 33% and 25%
Pregnancy in rats [1]; [10]
  Serum Progesterone (Percent Control): 70 Percent Control
  Serum Progesterone ng/ml + S.E.: 35.1 + 7.8 ng/ml
Pregnancy in rats [1]; [11]
  Adrenal Wt. mg + SE: 94.8 + 8.9 mg
  Fetal Viability: Normal Fetuses/Implantation Sites: 15/63
  Fetal Viability: Normal Fetuses/Implantation Sites (Percent): 24%
  Number of Rats Pregnant/Number of Rats Treated: 2/6
  Number of Rats Pregnant/Number of Rats Treated (Percent): 33%
Pregnancy in rats [2]; [12]
  Adrenal Wt. mg + SE: 55.8 + 4.1 mg
  Fetal Viability: Normal Fetuses/Implantation Sites: 54/56
  Fetal Viability: Normal Fetuses/Implantation Sites (Percent): 96%
  Number of Rats Pregnant/Number of Rats Treated: 5/5
  Number of Rats Pregnant/Number of Rats Treated (Percent): 100%
Pregnancy in rats [2]; [13]
  Adrenal Wt. mg + SE: 64.1 + 5.2 mg
  Fetal Viability: Normal Fetuses/Implantation Sites: 56/77
  Fetal Viability: Normal Fetuses/Implantation Sites (Percent): 72%
  Number of Rats Pregnant/Number of Rats Treated: 6/6
  Number of Rats Pregnant/Number of Rats Treated (Percent): 100%
Pregnancy in rats [2]; [14]
  Adrenal Wt. mg + SE: 75.9 + 6.1 mg
  Fetal Viability: Normal Fetuses/Implantation Sites: 46/84
  Fetal Viability: Normal Fetuses/Implantation Sites (Percent): 55%
  Number of Rats Pregnant/Number of Rats Treated: 4/7
  Number of Rats Pregnant/Number of Rats Treated (Percent): 57%
Pregnancy in rats [2]; [15]
  Fetal Viability: Normal Fetuses/Implantation Sites: 11/112
  Fetal Viability: Normal Fetuses/Implantation Sites (Percent): 10%
  Number of Rats Pregnant/Number of Rats Treated: 1/9
  Number of Rats Pregnant/Number of Rats Treated (Percent): 11%
Pregnancy in rats [2]; [16]
  Adrenal Wt. mg + SE: 61.3 + 3.0 mg
  Fetal Viability: Normal Fetuses/Implantation Sites: 8/108
  Fetal Viability: Normal Fetuses/Implantation Sites (Percent): 7%
  Number of Rats Pregnant/Number of Rats Treated: 1/9
  Number of Rats Pregnant/Number of Rats Treated (Percent): 11%
Pregnancy in rats [2]; [17]
  Adrenal Wt. mg + SE: 60.3 + 1.6 mg
  Fetal Viability: Normal Fetuses/Implantation Sites: 10/106
  Fetal Viability: Normal Fetuses/Implantation Sites (Percent): 9%
  Number of Rats Pregnant/Number of Rats Treated: 1/10
  Number of Rats Pregnant/Number of Rats Treated (Percent): 10%

Reference: patent US4388311A, “Method for the induction of menses” (G. D. Searle & Co., priority 1982, dated 1983)
